According to article PMC9667936, “Functional mapping of the 14-3-3 hub protein as a guide to design 14-3-3 molecular glues” (Chemical Science, 2022):
Where a SMILES comes first, the peptide text is derived from it. [ ]: non-standard residue; d: D form. The star is where a group is joined. ξ: configuration not given here. FITC = O=C1OC2(c3ccc(O)cc3Oc3cc(O)ccc32)c2ccc(NC(=S)*)cc21; Phe(4-NO2) = N[C@@H](Cc1ccc([N+](=O)[O-])cc1)C(=O)O; ξAla(4-thiazolyl) = NC(Cc1cscn1)C(=O)O; pS = N[C@@H](COP(=O)(O)O)C(=O)O; β3hS = N[C@@H](CO)CC(=O)O; Nva = CCC[C@H](N)C(=O)O; βAla = NCCC(=O)O

Molecular target: T1, 14-3-3γ (Homo sapiens, UniProt P61981)
T1 construct: made in house; host or cells: E. coli NiCo21 (DE3)
T1 sequence (P61981 1-247): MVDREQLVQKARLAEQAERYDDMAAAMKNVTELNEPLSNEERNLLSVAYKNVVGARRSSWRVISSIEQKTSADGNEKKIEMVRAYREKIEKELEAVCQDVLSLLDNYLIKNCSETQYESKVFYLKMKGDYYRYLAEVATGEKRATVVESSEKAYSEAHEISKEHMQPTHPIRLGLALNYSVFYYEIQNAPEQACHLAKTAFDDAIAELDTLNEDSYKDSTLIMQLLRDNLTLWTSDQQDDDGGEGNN
Assay: Fluorescence anisotropy (FA) binary binding study: 14-3-3 titrated to fluorescein-labelled peptide
Details: for individual ΔΔG of removed residue: ΔG relative to the previously truncated peptide; for Affinity Kd / Kd: Table S4, point-mutated peptides; for Affinity Kd: 10 nM FITC-labelled peptide; for Kd: 14-3-3 titrated to 10 nM FITC-labelled peptide, HEPES pH 7.4, room temperature, 4PL fit, read-out: Affinity Kd
Method: 14-3-3γ protein expression (FP/ITC experiments)
(§1) A pPROEX HTb expression vector encoding the human 14-3-3 protein gamma (14-3-3γ) with an N-terminal his6-tag was transformed by heat shock into NiCo21 (DE3) competent cells. Single colonies were cultured in 50 mL LB medium (100 µg/mL ampicillin). After overnight incubation at 37 °C, cultures were transferred to 2 L TB media (100 µg/mL ampicillin, 1 mM MgCl2) and incubated at 37 °C until an OD600 nm of 0.8-1.2 was reached. Protein expression was then induced with 0.4 mM isopropyl-β-d-thiogalactoside (IPTG), and cultures were incubated overnight at 18 °C. Cells were harvested by centrifugation (8600 rpm, 20 minutes, 4 °C) and resuspended in lysis buffer (50 mM Hepes, pH 8.0, 300 mM NaCl, 12.5 mM imidazole, 5 mM MgCl2, 2 mM βME) containing cOmplete™ EDTA-free Protease Inhibitor Cocktail tablets (1 tablet/100 ml lysate) and benzonase (1 µl/100 ml). After lysis using a C3 Emulsiflex-C3 homogenizer (Avestin), the cell lysate was cleared by centrifugation (20000 rpm, 30 minutes, 4 °C) and purified using Ni2+-affinity chromatography (Ni-NTA superflow cartridges, Qiagen).
Typically two 5 mL columns (flow 5 mL/min) were used for a 2 L culture in which the lysate was loaded on the column washed with 10 CV wash buffer (50 mM Hepes, pH 8.0, 300 mM NaCl, 25 mM imidazole, 2 mM βME) and eluted in several fractions (2-4 CV) of elution buffer (50 mM Hepes, pH 8.0, 300 mM NaCl, 250 mM imidazole, 2 mM βME). Fractions containing the 14-3-3 protein were combined and dialyzed into 25 mM HEPES pH 8.0, 100 mM NaCl, 10 mM MgCl2, 500 µM TCEP. Finally, the protein was concentrated to ∼60 mg/mL, analyzed Q-Tof LC/MS, and aliquots were flash-frozen for storage at […]
as §1, with “sigma truncated after T231 (14-3-3σΔc) and” for “gamma (14-3-3γ)”, “tablet/ 100” for “tablet/100”, “µl/ 100” for “µl/100”, “ml).” for “ml). After lysis using a C3 Emulsiflex-C3 homogenizer (Avestin), the cell lysate was cleared by centrifugation (20000 rpm, 30 minutes, 4 °C) and purified using Ni2+-affinity chromatography (Ni-NTA superflow cartridges, Qiagen).”
After lysis using a C3 Emulsiflex-C3 homogenizer (Avestin), the cell lysate was cleared by centrifugation (20000 rpm, 30 minutes, 4 °C) and purified using Ni2+-affinity chromatography (Ni-NTA superflow cartridges, Qiagen). Typically two 5 mL columns were used for a 2 L culture in which the lysate was loaded on the column washed with 10 CV wash buffer (50 mM Hepes, pH 8.0, 300 mM NaCl, 25 mM imidazole, 2 mM βME) and eluted with several fractions (2-4 CV) of elution buffer (50 mM Hepes, pH 8.0, 300 mM NaCl, 250 mM imidazole, 2 mM βME). Fractions containing the 14-3-3 protein were combined and dialyzed into 25 mM HEPES pH 8.0, 200 mM NaCl, 10 mM MgCl2, 2 mM βME. In addition, 1 mg TEV was added for each 100 mg purified protein to remove the purification tag. The cleaved sample was then again loaded on a 10 mL Ni-NTA column to separate the cleaved product from the expression tag and residual uncleaved protein. The flowthrough was loaded on a Superdex 75 pg 16/60 size exclusion column (GE Life Sciences) using 25 mM HEPES, 100 mM NaCl, 10 mM MgCl2, 500 μM TCEP (adjusted to pH=8.0) as running buffer. Fractions containing the 14-3-3 protein were pooled and concentrated to ∼60 mg/mL, analyzed Q-Tof LC/MS, and aliquots were flash-frozen for storage at −80 […]
The peptides 1 and 2a-d were synthesized on 50 µmol scale on a Rink amide MBHA resin […]

[1] = Table S2, FA KD of peptide divided by KD of previous (one amino acid longer) peptide, mean of n = 3
[2] = Table S2, KD / KD of previous (one amino acid longer) peptide, replicate 1
[3] = Table S2, KD / KD of previous (one amino acid longer) peptide, replicate 2
[4] = Table S2, KD / KD of previous (one amino acid longer) peptide, replicate 3
[5] = Table S2, calculated from FA KD, mean of n = 3
[6] = Table S2, from FA KD, replicate 1
[7] = Table S2, from FA KD, replicate 2
[8] = Table S2, from FA KD, replicate 3
[9] = Table S2, ΔG minus ΔG of previous peptide, FA, replicate 1
[10] = Table S2, ΔG minus ΔG of previous peptide, FA, replicate 2
[11] = Table S2, ΔG minus ΔG of previous peptide, FA, replicate 3
[12] = Table S2, ΔG of peptide minus ΔG of previous (one amino acid longer) peptide, FA, mean of n = 3
[13] = Table S4, FA Kd / Kd of 1, replicate 1
[14] = Table S4, FA Kd / Kd of 1, replicate 2
[15] = Table S4, FA Kd / Kd of 1, replicate 3
[16] = Table S4, FA Kd of peptide divided by Kd of 1, mean of n = 3
[17] = Table S4, calculated from FA Kd, mean of n = 3
[18] = Table S4, from FA Kd, replicate 1
[19] = Table S4, from FA Kd, replicate 2
[20] = Table S4, from FA Kd, replicate 3
[21] = Table S4, ΔG minus ΔG of 1, FA, replicate 1
[22] = Table S4, ΔG minus ΔG of 1, FA, replicate 2
[23] = Table S4, ΔG minus ΔG of 1, FA, replicate 3
[24] = Table S4, ΔG of peptide minus ΔG of 1, FA, mean of n = 3

| SMILES | individual ΔΔG of removed residue (FA) | Fold change to previous [1] | Fold change to previous [2] | Fold change to previous [3] | Fold change to previous [4] | ΔG [5] | ΔG [6] | ΔG [7] | ΔG [8] | ΔΔG (to previous) [9] | ΔΔG (to previous) [10] | ΔΔG (to previous) [11] | ΔΔG (to previous) [12] | Affinity Kd (FA, replicate 1) [nM] | Affinity Kd (FA, replicate 2) [nM] | Affinity Kd (FA, replicate 3) [nM] | Kd (FA, mean of n = 3) [nM] | Fold change to 1 [13] | Fold change to 1 [14] | Fold change to 1 [15] | further results |
| --- | --- | --- | --- | --- | --- | --- | --- | --- | --- | --- | --- | --- | --- | --- | --- | --- | --- | --- | --- | --- | --- |
| C[C@H](NC(=O)[C@H](CCCCN)NC(=O)[C@H](Cc1ccc([N+](=O)[O-])cc1)NC(=O)CCNC(=O)C[C@H](CO)NC(=O)[C@H](Cc1ccc([N+](=O)[O-])cc1)NC(=O)[C@H](COP(=O)(O)O)NC(=O)C(N)Cc1cscn1)C(=O)N[C@@H](CCCCNC(=S)Nc1ccc2c(c1)C(=O)OC21c2ccc(O)cc2Oc2cc(O)ccc21)C(N)=O (stereo partly drawn) [2c] (H-[ξAla(4-thiazolyl)][pS][Phe(4-NO2)][β3hS][βAla][Phe(4-NO2)]KAK(FITC)-NH2) | only minor energy contributions | 0,53 | 0,51 | 0,53 | 0,56 | -9,90 kcal/mol | -9,93 kcal/mol | -9,88 kcal/mol | -9,88 kcal/mol | -0,40 kcal/mol | -0,38 kcal/mol | -0,34 kcal/mol | -0,37 kcal/mol |  |  |  |  |  |  |  |  |
| C[C@H](NC(=O)[C@H](CCCCN)NC(=O)[C@H](Cc1ccc([N+](=O)[O-])cc1)NC(=O)CCNC(=O)C[C@H](CO)NC(=O)[C@H](Cc1ccc([N+](=O)[O-])cc1)NC(=O)[C@@H](N)COP(=O)(O)O)C(=O)N[C@@H](CCCCNC(=S)Nc1ccc2c(c1)C(=O)OC21c2ccc(O)cc2Oc2cc(O)ccc21)C(N)=O [2d] (H-[pS][Phe(4-NO2)][β3hS][βAla][Phe(4-NO2)]KAK(FITC)-NH2) | 2.2 kcal/mol | 43,23 | 40,69 | 45,81 | 43,18 | -7,67 kcal/mol | -7,74 kcal/mol | -7,61 kcal/mol | -7,65 kcal/mol | 2,19 kcal/mol | 2,26 kcal/mol | 2,23 kcal/mol | 2,23 kcal/mol |  |  |  |  |  |  |  | fold change in binding affinity on truncation (FA KD relative to the previous (one amino acid longer) peptide): 43 fold; cumulative ΔΔG of truncating the entire N- or C-terminus (FA, relative to peptide 1 (2d: entire N-terminus; 2i: entire C-terminus)): 2.9 kcal/mol; ΔΔG N-term (cumulative, whole N-terminus removed) (Table S2, N-term = 2d relative to 1, FA, mean of n = 3): 2,86 kcal/mol; ΔΔG N-term (cumulative) (Table S2, N-term = 2d relative to 1, FA, replicate 1): 2,88 kcal/mol; ΔΔG N-term (cumulative) (Table S2, N-term = 2d relative to 1, FA, replicate 2): 2,94 kcal/mol; ΔΔG N-term (cumulative) (Table S2, N-term = 2d relative to 1, FA, replicate 3): 2,75 kcal/mol |
| CCC[C@H](NC(=O)[C@H](N)CCCCN)C(=O)N[C@@H](Cc1ccc([N+](=O)[O-])cc1)C(=O)N[C@@H](C)C(=O)N[C@@H](COP(=O)(O)O)C(=O)N[C@@H](Cc1ccc([N+](=O)[O-])cc1)C(=O)N[C@@H](CO)CC(=O)NCCC(=O)N[C@@H](Cc1ccc([N+](=O)[O-])cc1)C(=O)N[C@@H](CCCCN)C(N)=O [3a] (H-[dK][Nva][Phe(4-NO2)]A[pS][Phe(4-NO2)][β3hS][βAla][Phe(4-NO2)]K-NH2; N-terminus and C-terminus assumed) |  |  |  |  |  |  |  |  |  |  |  |  |  | 100 | 42 | 72 | 71 | 1.9 | 0.6 | 1.0 | ΔΔG of point mutation (FA) (FA, relative to 1, mean ± SD, SD): 0.0 ± 0.4 kcal/mol; Fold change to 1 [16]: 1.2; ΔG [17]: -9.8 kcal/mol; ΔG [18]: -9.5 kcal/mol; ΔG [19]: -10.1 kcal/mol; ΔG [20]: -9.7 kcal/mol; ΔΔG to 1 [21]: 0.4 kcal/mol; ΔΔG to 1 [22]: -0.3 kcal/mol; ΔΔG to 1 [23]: 0.0 kcal/mol; ΔΔG to 1 [24]: 0.0 kcal/mol |
| CCC[C@H](NC(=O)[C@H](N)CCCCN)C(=O)N[C@@H](Cc1ccc([N+](=O)[O-])cc1)C(=O)NC(Cc1cscn1)C(=O)N[C@@H](COP(=O)(O)O)C(=O)N[C@@H](Cc1ccc(O)cc1)C(=O)N[C@@H](CO)CC(=O)NCCC(=O)N[C@@H](Cc1ccc([N+](=O)[O-])cc1)C(=O)N[C@@H](CCCCN)C(N)=O (stereo partly drawn) [4a] (H-[dK][Nva][Phe(4-NO2)][ξAla(4-thiazolyl)][pS]Y[β3hS][βAla][Phe(4-NO2)]K-NH2; N-terminus and C-terminus assumed) |  |  |  |  |  |  |  |  |  |  |  |  |  | 47 | 41 | 63 | 50 | 0.9 | 0.6 | 0.9 | Fold change to 1 [16]: 0.8; ΔG [17]: -10.0 kcal/mol; ΔG [18]: -10.0 kcal/mol; ΔG [19]: -10.1 kcal/mol; ΔG [20]: -9.8 kcal/mol; ΔΔG to 1 [21]: -0.1 kcal/mol; ΔΔG to 1 [22]: -0.3 kcal/mol; ΔΔG to 1 [23]: -0.1 kcal/mol; ΔΔG to 1 [24]: -0.2 kcal/mol |
